Assay results as given in patent US11718601B2 (Bristol-Myers Squibb Company, priority 2021, dated 2023).

Experiments:
Ikaros = target: T1, Ikaros (Homo sapiens, UniProt Q13422+Q96SW2); assay: Helios Cellular Degradation Assay (Ikaros, Jurkat); type: cell-based; settings: Jurkat cells, 72 h incubation, flow cytometry with Ikaros-Alexa488 antibody; read-out: Ikaros Jurkat IC50
T1 construct: endogenous in cells; host or cells: Jurkat cells
Procedure: (§1) Jurkat cells were plated at 80,000 cells/well in 40 μL RPMI+10% FBS in a 384 well cell culture plate prior to using acoustic dispensing technology for adding compound of interest. Cell cultures were incubated for 72 h at 37° C. and 5% CO2. In order to facilitate analysis, cell cultures were spun down at 200 rpm for 5 min and the supernatant was discarded. […] Subsequently, 30 μL of 1× Permeabilization buffer was added prior to centrifuging the cells and discarding the supernatant. Stained cells were resuspended in 25 μL of flow cytometry staining buffer (PBS+0.2% BSA) and analyzed using an Intellicyt Ique Plus flow cytometer.

Helios = target: T2, Helios (Homo sapiens, UniProt Q96SW2+Q9UKS7); assay: Helios Cellular Degradation Assay (Helios, Jurkat); type: cell-based; settings: Jurkat cells, 72 h incubation, flow cytometry with Helios-PE antibody; read-out: Helios Jurkat IC50
T2 construct: endogenous in cells; host or cells: Jurkat cells
Procedure: as §1

T2 sequence (Q9UKS7 whole entry): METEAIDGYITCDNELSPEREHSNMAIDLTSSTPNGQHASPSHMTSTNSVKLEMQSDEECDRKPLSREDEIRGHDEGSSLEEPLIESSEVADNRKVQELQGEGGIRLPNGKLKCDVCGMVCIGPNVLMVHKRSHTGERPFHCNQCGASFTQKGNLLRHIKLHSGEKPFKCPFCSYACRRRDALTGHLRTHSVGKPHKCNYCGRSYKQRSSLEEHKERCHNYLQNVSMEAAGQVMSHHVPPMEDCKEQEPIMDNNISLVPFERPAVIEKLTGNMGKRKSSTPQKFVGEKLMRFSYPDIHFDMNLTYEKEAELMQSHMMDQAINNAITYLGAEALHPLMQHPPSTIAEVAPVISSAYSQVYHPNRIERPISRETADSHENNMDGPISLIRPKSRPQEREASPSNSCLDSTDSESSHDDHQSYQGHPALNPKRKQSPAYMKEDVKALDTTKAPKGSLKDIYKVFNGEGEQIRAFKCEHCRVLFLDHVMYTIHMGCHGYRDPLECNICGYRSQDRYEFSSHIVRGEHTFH
T2 sequence (Q96SW2 whole entry): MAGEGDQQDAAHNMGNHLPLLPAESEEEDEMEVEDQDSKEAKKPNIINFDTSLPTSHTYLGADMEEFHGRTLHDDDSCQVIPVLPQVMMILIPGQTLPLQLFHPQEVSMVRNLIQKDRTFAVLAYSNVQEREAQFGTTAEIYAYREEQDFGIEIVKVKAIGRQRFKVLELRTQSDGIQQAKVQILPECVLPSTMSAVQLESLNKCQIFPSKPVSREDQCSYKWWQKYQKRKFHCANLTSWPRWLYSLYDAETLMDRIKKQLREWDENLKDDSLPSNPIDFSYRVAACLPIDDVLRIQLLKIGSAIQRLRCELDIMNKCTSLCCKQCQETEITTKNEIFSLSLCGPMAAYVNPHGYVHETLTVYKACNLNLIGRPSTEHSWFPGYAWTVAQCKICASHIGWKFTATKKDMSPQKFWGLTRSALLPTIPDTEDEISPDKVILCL
T2 sequence (Q16531 whole entry partner): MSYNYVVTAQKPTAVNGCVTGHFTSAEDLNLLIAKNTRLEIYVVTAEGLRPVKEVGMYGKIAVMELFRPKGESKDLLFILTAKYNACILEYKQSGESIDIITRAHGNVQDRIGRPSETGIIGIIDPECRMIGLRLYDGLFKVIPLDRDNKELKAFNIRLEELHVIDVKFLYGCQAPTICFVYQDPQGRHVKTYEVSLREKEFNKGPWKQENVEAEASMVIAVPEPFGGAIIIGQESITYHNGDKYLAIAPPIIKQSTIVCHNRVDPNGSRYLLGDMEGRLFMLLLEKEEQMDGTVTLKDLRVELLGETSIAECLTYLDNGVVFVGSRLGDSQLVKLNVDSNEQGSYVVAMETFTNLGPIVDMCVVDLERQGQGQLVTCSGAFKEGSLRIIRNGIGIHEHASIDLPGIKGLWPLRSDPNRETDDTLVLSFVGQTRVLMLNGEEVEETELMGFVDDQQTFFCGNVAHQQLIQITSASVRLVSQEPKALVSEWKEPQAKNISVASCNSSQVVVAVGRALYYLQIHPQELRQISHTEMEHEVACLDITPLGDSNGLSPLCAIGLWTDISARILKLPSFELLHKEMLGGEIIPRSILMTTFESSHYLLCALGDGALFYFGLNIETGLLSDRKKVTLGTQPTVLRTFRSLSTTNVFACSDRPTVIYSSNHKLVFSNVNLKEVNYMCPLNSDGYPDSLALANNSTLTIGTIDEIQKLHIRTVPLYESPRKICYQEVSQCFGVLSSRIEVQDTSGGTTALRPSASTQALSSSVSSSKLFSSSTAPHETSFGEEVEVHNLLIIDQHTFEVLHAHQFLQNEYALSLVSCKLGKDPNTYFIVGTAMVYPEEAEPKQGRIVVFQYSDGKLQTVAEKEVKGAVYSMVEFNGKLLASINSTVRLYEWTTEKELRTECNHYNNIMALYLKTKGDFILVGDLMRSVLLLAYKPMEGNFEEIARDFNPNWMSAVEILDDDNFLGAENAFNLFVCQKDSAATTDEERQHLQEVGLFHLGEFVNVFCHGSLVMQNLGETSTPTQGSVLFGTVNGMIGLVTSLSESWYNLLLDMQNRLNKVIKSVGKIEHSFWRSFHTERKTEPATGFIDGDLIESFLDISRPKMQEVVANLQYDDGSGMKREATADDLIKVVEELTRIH
T1 sequence (Q13422 whole entry): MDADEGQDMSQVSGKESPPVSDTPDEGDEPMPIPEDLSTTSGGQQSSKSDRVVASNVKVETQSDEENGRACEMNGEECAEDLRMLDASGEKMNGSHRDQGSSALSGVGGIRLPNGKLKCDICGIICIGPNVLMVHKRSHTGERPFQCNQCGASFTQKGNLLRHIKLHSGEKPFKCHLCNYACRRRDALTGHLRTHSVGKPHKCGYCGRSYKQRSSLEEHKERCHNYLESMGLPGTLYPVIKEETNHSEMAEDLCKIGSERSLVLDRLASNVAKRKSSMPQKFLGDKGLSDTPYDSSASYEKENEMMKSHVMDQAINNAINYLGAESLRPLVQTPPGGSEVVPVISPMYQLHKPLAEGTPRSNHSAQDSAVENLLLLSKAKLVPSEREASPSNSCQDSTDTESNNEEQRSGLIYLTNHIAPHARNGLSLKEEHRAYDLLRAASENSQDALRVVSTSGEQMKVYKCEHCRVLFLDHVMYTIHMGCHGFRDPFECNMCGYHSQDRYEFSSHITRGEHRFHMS
T1 sequence (Q96SW2 whole entry): as the sequence (Q96SW2 whole entry) above
T1 sequence (Q16531 whole entry partner): as the sequence (Q16531 whole entry partner) above

Row | Compound | DC50 (Ikaros) [nM] | DC50 (Helios) [nM]
1 | CNc1nc(-c2ccc3c(c2)[C@H](C)N(C2CCC(=O)NC2=O)C3=O)cc(C)c1C#N (single isomer, unassigned) [Example 14] | > 10000 | 1000
2 | Cc1cc(-c2ccc3c(c2C)CN(C2CCC(=O)NC2=O)C3=O)nc(N)c1C#N (stereo not shown) [Example 1, 2-amino-6-(2-(2,6-dioxopiperidin-3-yl)-4-methyl-1-oxoisoindolin-5-yl)-4-methylnicotinonitrile] | > 10000 | 1400
3 | Cc1cc(-c2ccc3c(c2)[C@@H](C)N(C2CCC(=O)NC2=O)C3=O)nc(N)c1C#N (single isomer, unassigned) [Example 11] | > 10000 | 6
4 | Cc1cc(-c2ccc3c(c2F)CN(C2CCC(=O)NC2=O)C3=O)nc(N)c1F (stereo not shown) [Example 19, 3-(5-(6-Amino-5-fluoro-4-methylpyridin-2-yl)-4-fluoro-1-oxoisoindolin-2-yl)piperidine-2,6-dione] | > 10000 | 3.5
5 | Cc1cc(-c2ccc3c(c2F)[C@@H](C)N(C2CCC(=O)NC2=O)C3=O)nc(N)c1C#N (stereo partly drawn) [Example 23, 2-Amino-6-((3R)-2-(2,6-dioxopiperidin-3-yl)-4-fluoro-3-methyl-1-oxoisoindolin-5-yl)-4-methylnicotinonitrile] | > 10000 | 35
6 | Cc1cc(-c2ccc3c(c2F)CN(C2CCC(=O)NC2=O)C3=O)nc(N)c1C (stereo not shown) [Example 7, 3-(5-(6-Amino-4,5-dimethylpyridin-2-yl)-4-fluoro-1-oxoisoindolin-2-yl)piperidine-2,6-dione] | > 10000 | 1
7 | Cc1cc(-c2ccc3c(c2F)CN(C2CCC(=O)NC2=O)C3=O)nc(N)c1C#N (stereo not shown) [Example 3, 2-Amino-6-(2-(2,6-dioxopiperidin-3-yl)-4-fluoro-1-oxoisoindolin-5-yl)-4-methylnicotinonitrile] | > 10000 | 3
8 | Cc1cc(-c2ccc3c(c2)[C@@H](C)N(C2CCC(=O)NC2=O)C3=O)nc(N)c1C (single isomer, unassigned) [Example 9] | > 10000 | 3
9 | CNc1nc(-c2ccc3c(c2)[C@@H](C)N(C2CCC(=O)NC2=O)C3=O)cc(C)c1C (single isomer, unassigned) [Example 13] | > 10000 | 2800
10 | CNc1nc(-c2ccc3c(c2)[C@H](C)N(C2CCC(=O)NC2=O)C3=O)cc(C)c1C (stereo partly drawn) [Example 12, 3-((S)-5-(4,5-Dimethyl-6-(methylamino)pyridin-2-yl)-3-methyl-1-oxoisoindolin-2-yl) piperidine-2,6-dione] | > 10000 | 33
11 | CNc1nc(-c2ccc3c(c2)[C@@H](C)N(C2CCC(=O)NC2=O)C3=O)cc(C)c1C#N (single isomer, unassigned) [Example 15] | > 10000 | 57
12 | Cc1cc(-c2ccc3c(c2)[C@H](C)N(C2CCC(=O)NC2=O)C3=O)nc(N)c1C#N (single isomer, unassigned) [Example 10] | > 10000 | 310

Now from value to compound:

Row | DC50 (Ikaros) [nM] | DC50 (Helios) [nM] | Compound
13 | > 10000 | 24 | Cc1cc(-c2ccc3c(c2F)[C@@H](C)N(C2CCC(=O)NC2=O)C3=O)nc(N)c1F (stereo partly drawn) [Example 29, 3-((R)-5-(6-amino-5-fluoro-4-methylpyridin-2-yl)-4-fluoro-3-methyl-1-oxoisoindolin-2-yl)piperidine-2,6-dione]
14 | > 10000 | 1300 | C[C@@H]1c2c(ccc(-c3cc(C(F)(F)F)cc(N)n3)c2F)C(=O)N1C1CCC(=O)NC1=O (stereo partly drawn) [Example 25, 3-((R)-5-(6-Amino-4-(trifluoromethyl)pyridin-2-yl)-4-fluoro-3-methyl-1-oxoisoindolin-2-yl)piperidine-2,6-dione]
15 | > 10000 | 5.8 | Cc1cc(-c2ccc3c(c2)C(C)N(C2CCC(=O)NC2=O)C3=O)nc(N)c1F (single isomer, unassigned) [Example 21]
16 | > 10000 | 200 | Cc1cc(-c2ccc3c(c2)C(C)N(C2CCC(=O)NC2=O)C3=O)nc(N)c1F (single isomer, unassigned) [Example 22]
17 | > 10000 | – | Cc1cc(N)nc(-c2ccc3c(c2F)CN(C2CCC(=O)NC2=O)C3=O)c1F (stereo not shown) [Example 20, 3-(5-(6-Amino-3-fluoro-4-methylpyridin-2-yl)-4-fluoro-1-oxoisoindolin-2-yl)piperidine-2,6-dione]
18 | > 10000 | 160 | Cc1cc(N)nc(-c2ccc3c(c2F)[C@@H](C)N(C2CCC(=O)NC2=O)C3=O)c1 (stereo partly drawn) [Example 24, 3-((R)-5-(6-Amino-4-methylpyridin-2-yl)-4-fluoro-3-methyl-1-oxoisoindolin-2-yl) piperidine-2,6-dione]
19 | > 10000 | 700 | Cc1cc(-c2ccc3c(c2F)[C@H](C)N(C2CCC(=O)NC2=O)C3=O)nc(N)c1F (stereo partly drawn) [Example 30, 3-((S)-5-(6-Amino-5-fluoro-4-methylpyridin-2-yl)-4-fluoro-3-methyl-1-oxoisoindolin-2-yl)piperidine-2,6-dione]
